Measurements taken from the supplement of paper PMC11061612.

How the values were obtained:
Test in all cases: Bliss excess, mean over the matrix (fraction); higher = more synergy
[1] = test system: TE-8 (Esophageal Squamous Cell Carcinoma)
Outline: (§1)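 Cell lines in DMEM/F12 or RPMI with 10% FBS were plated in 1536-well plates, held 24 hours at 37°C, 5% CO2, then given two-drug dose matrices for 72 hours (DMSO typically 0.2%). Viability was read by CellTiter-Glo 2.0 luminescence and scaled as inhibition from 0 (vehicle wells) to 1 (blank wells). Combination Emax is the second-highest inhibition in the matrix; Bliss excess is observed combination effect minus expected EA + EB − EA·EB, EA and EB being single-agent effects.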

[2] = test system: PC-3_[JPC-3] (Lung Adenocarcinoma)
Outline: as §1

[3] = test system: OPM-2 (Plasma Cell Myeloma)
Outline: as §1

[4] = test system: 23132-87 (Gastric Carcinoma)
Outline: as §1

[5] = test system: GP5d (Colorectal Carcinoma)
Outline: as §1

[6] = test system: RKN (Other Solid Carcinomas)
Outline: as §1

[7] = test system: VAL (B-Cell Non-Hodgkin's Lymphoma)
Outline: as §1

[8] = test system: LXF-289 (Lung Adenocarcinoma)
Outline: as §1

[9] = test system: FADU (Head and Neck Carcinoma)
Outline: as §1

WM793B (Melanoma) = test system: WM793B (Melanoma)
Outline: as §1

[10] = test system: MFE-280 (Endometrial Carcinoma)
Outline: as §1

SF268 (Low Grade Glioma) = test system: SF268 (Low Grade Glioma)
Outline: as §1

[11] = test system: PANC-03-27 (Pancreatic Carcinoma)
Outline: as §1

[12] = test system: SU-DHL-10 (B-Cell Non-Hodgkin's Lymphoma)
Outline: as §1

[13] = test system: NCI-H23 (Lung Adenocarcinoma)
Outline: as §1

[14] = test system: COLO-680N (Esophageal Squamous Cell Carcinoma)
Outline: as §1

[15] = test system: MKN45 (Gastric Carcinoma)
Outline: as §1

LN-229 (Glioblastoma) = test system: LN-229 (Glioblastoma)
Outline: as §1

[16] = test system: RCM-1 (Colorectal Carcinoma)
Outline: as §1

[17] = test system: LK-2 (Squamous Cell Lung Carcinoma)
Outline: as §1

SMILES	Bliss excess [1]	Bliss excess [2]	Bliss excess [3]	Bliss excess [4]	Bliss excess [5]	Bliss excess [6]	Bliss excess [7]	Bliss excess [8]	Bliss excess [9]	Bliss excess (WM793B (Melanoma))	Bliss excess [10]	Bliss excess (SF268 (Low Grade Glioma))	Bliss excess [11]	Bliss excess [12]	Bliss excess [13]	Bliss excess [14]	Bliss excess [15]	Bliss excess (LN-229 (Glioblastoma))	Bliss excess [16]	Bliss excess [17]
CCN(CCO)CCCOc1ccc2c(Nc3cc(CC(=O)Nc4cccc(F)c4)[nH]n3)ncnc2c1 [AZD2811] + C=CCn1c(=O)c2cnc(Nc3ccc(N4CCN(C)CC4)cc3)nc2n1-c1cccc(C(C)(C)O)n1 [AZD1775] (first compound max 1 µM, partner max 1 µM)	-0.016	-0.0752	-0.0606	0.0208	0.08	-0.0017	-0.087	-0.012	0.0047	0.02	0.0727	-0.0005	0.001	-0.0481	-0.0005	-0.0147	-0.0302	-0.0363	0.0398	-0.0952
CCN(CCO)CCCOc1ccc2c(Nc3cc(CC(=O)Nc4cccc(F)c4)[nH]n3)ncnc2c1 [AZD2811] + C[C@@H]1COCCN1C2=NC(=NC(=C2)C3(CC3)[S@](=N)(=O)C)C4=C5C=CNC5=NC=C4 [AZD6738] (first compound max 1 µM, 7x7, partner max 10 µM)	-0.0484	-0.0453	-0.0187	-0.0087	-0.0575	0.0009	-0.0336	-0.0763	-0.0165	-0.0709	-0.0223	-0.027	-0.123	-0.0609	-0.0308	-0.0737	-0.0439	-0.0563	-0.0263	-0.064
CN(CCO)CC[C@H](CSc1ccccc1)Nc1ccc(S(=O)(=O)NC(=O)c2ccc(N3CCC([C@@H](O)c4ccccc4-c4ccc(Cl)cc4)CC3)cc2)cc1S(=O)(=O)C(F)(F)F [AZD4320] + C=CCn1c(=O)c2cnc(Nc3ccc(N4CCN(C)CC4)cc3)nc2n1-c1cccc(C(C)(C)O)n1 [AZD1775] (first compound max 1 µM, partner max 1 µM)	0.0378	-0.0114	0.0457	0.072	-0.0238	-0.0357	-0.0211	-0.0252	0.0213	-0.0248	0.0823	0.0042	0.0079	0.0069	0.0364	0.0065	–	0.0438	-0.0586	0.0105
COc1nnc2ccc(N3CCC(c4ccc(OCCN5CCN(C)C(=O)[C@H]5C)cc4)CC3)nn12 [AZD5153] + CN(CC[C@H](CSC1=CC=CC=C1)NC2=C(C=C(C=C2)S(=O)(=O)NC(=O)C3=CC=C(C=C3)N4CCC(CC4)[C@H](C5=CC=CC=C5C6=CC=C(C=C6)Cl)O)S(=O)(=O)C(F)(F)F)CCO [AZD4320] (first compound max 1 µM, 7x7, partner max 1 µM)	–	–	–	-0.0551	0.0199	–	–	0.0194	0.0146	-0.0257	–	-0.0183	–	-0.0269	-0.0027	–	–	0.0357	–	–
Cc1c2c(nn1C)CSCc1cc(n(C)n1)CSc1cc(c3ccccc3c1)OCCCc1c(C(=O)O)n(C)c3c-2c(Cl)ccc13 [AZD5991] + Cc1cc2ncnn2cc1Nc1ncc2c(n1)n(C1CCOCC1)c(=O)n2C [AZD7648] (first compound max 1 µM, 7x7, partner max 10 µM)	-0.069	-0.0306	-0.0357	-0.0679	-0.0338	-0.0151	-0.0356	-0.0889	-0.0003	-0.024	–	0.0006	-0.0286	0.0328	-0.0431	-0.0177	-0.0528	-0.0525	-0.0149	0.0019
CS(=O)(=O)CCNCc1ccc(-c2ccc3ncnc(Nc4ccc(OCc5cccc(F)c5)c(Cl)c4)c3c2)o1 [Lapatinib] + NC1(c2ccc(-c3nc4ccn5c(=O)[nH]nc5c4cc3-c3ccccc3)cc2)CCC1 [MK-2206] (first compound max 10 µM, 7x7, partner max 10 µM)	-0.0004	-0.0174	0.0183	–	–	-0.0169	-0.0147	–	–	–	-0.006	–	-0.0064	–	-0.0481	0.0426	-0.0466	-0.0959	-0.0323	0.0303
CC(=O)c1c(C)c2cnc(Nc3ccc(N4CCNCC4)cn3)nc2n(C2CCCC2)c1=O [Palbociclib] + CN(CC[C@H](CSC1=CC=CC=C1)NC2=C(C=C(C=C2)S(=O)(=O)NC(=O)C3=CC=C(C=C3)N4CCC(CC4)[C@H](C5=CC=CC=C5C6=CC=C(C=C6)Cl)O)S(=O)(=O)C(F)(F)F)CCO [AZD4320] (first compound max 10 µM, 7x7, partner max 1 µM)	–	–	–	-0.093	0.0238	–	–	-0.0091	-0.137	-0.0525	–	-0.0438	–	0.0319	-0.0367	–	–	-0.059	–	–
CCc1c2c(nc3ccc(O)cc13)-c1cc3c(c(=O)n1C2)COC(=O)[C@]3(O)CC [SN-38] + O=C(c1cc(Cc2n[nH]c(=O)c3ccccc23)ccc1F)N1CCN(C(=O)C2CC2)CC1 [Olaparib] (first compound max 0.3 µM, 7x7, partner max 10 µM)	0.0202	0.113	0.0082	0.0174	0.143	0.0145	0.036	–	0.086	–	0.0167	–	0.0498	–	–	0.0012	-0.0495	–	-0.0176	0.128
